A word on the EC50: it is the concentration needed to bring the measured effect to its halfway point.

Holding throughout (format): cell-based
Assay [1] has as its system HepG2 XBP1(u)-Luc cells. As to the kind of experiment: HepG2 XBP1 reporter assay. The following applies: Homo sapiens, 6 h. Put shortly: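 Reporter cells are HepG2 stably carrying unspliced XBP1 fused to firefly luciferase, which becomes in-frame after IRE1alpha-mediated splicing. SteadyGlo luminescence was normalized to DMSO-treated cells for IC50 calculation.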
Background: A reporter such as luciferase makes a cellular process visible.

The test system of assay [2] is Colo-205 cells. As to the kind of experiment: Calcium flux assay (FLIPR Calcium 5). As to conditions: Homo sapiens, COLO 205, 0.6 h, FLIPR Calcium 5, measured over 36 minutes. The procedure: Compounds described herein induced ER stress by causing intracellular calcium flux. Calcium flux was measured in Colo-205 cells using the FLTPR® Calcium 5 Assay Kit according to manufacter's protocol (Molecular Devices, Cat. #R8186) on a FLIPR3 system (Molecular Devices). Calcium flux is measured over 36 minutes. The Colo-205 calcium flux assay data are summarized in Table 47: A<0.6 μM; 0.6 μM≤B<2.0 μM; 2.0 μM≤C<10.0 μM; D≥10.0 μM.

The subject of assay [3] is Hek293 WFS1 over-expressor. The experiment in a line: In vitro cell viability (CellTiter-Glo), Hek293 WFS1 over-expressor. The following applies: Homo sapiens, HEK293, Hek293 WFS1 over-expressing cells; read-out: Hek293 WFS1 viability. Here is the method: WFS1 cDNA is amplified from clone RC202901 (Origene Technologies) with primers 5′-TCCGCGGCCCCAAGCTTATCGCCATGGACTCCAACACTGC-3′ (SEQ ID NO: 1), 5′-GATGGGCCCAGATCTCGAGTCAGGCCGCCGACAGGAATG-3′ (SEQ ID NO: 2) and cloned into a retroviral mammalian expression vector pCLPCX using HD Infusion (CLONTECH) at Hind3-Xhol sites using standard procedures. The resulting clone is identified as pCLPCX_WFS1.
(§1) HEK293 (ATCC, catalog #CRL-1573) cells are plated in 10 cm dishes (Corning, product #430167) into 10 mL of complete DMEM cell culture media [DMEM (Life Technologies, product #11960-051) media supplemented with 10% FBS (Hyclone, catalog #SH30071.03), antimycotic/antibiotic (Life Technologies, product #15240-062), and Glutamax (Life Technologies, product #35050-061)] at 3×10^6 cells per dish. Cells are allowed to attach and grow overnight at 37° C. in humidified 5% CO2. Cells are co-transfected with pVSV-G, pCMV-Gag/Pol and pCLPCX_WFS1 using Fugene 6 (Promega, catalog #E2691) according to manufacturer's protocol. Separately, cells are co-transfected with pVSV-G, pCMV-Gag/Pol and pCLPCX to produce control retrovirus. Cell culture media containing retrovirus (viral supernatant) is collected at 48 and 72 hours following transfection, filtered through a 0.4 uM filter, and stored at −80° C.
(§2) HEK293 cells are plated in 6 well plates (Corning, product #3516) in 2 mL of complete DMEM cell culture media at 1×10^5 cells well and allowed to attach and grow overnight at 37° C. in humidified 5% CO2. The following day, the media is replaced with viral supernatant to which 10 ug/ml of Polybrene® (Santa Cruz Biotech, catalog #sc-134220) is added. Viral supernatant is replaced 24 hours later with complete DMEM media. Transduced cells are selected in complete DMEM cell culture media containing 1 microgram/mL of puromycin (Life Technologies, catalog #A1113803).
(§3) HEK293 cells containing empty pCLPCx vector (HEK293 empty), HEK293 cells stably over-expression WFS1 (HEK293 WFS1), HepG2, and HepG2 cells where WFS1 was depleted via CRISPR/Cas9 (HepG2 WFS1 KO) cells were plated into 96-well black plates (Corning, product #3904) in 100 microliters of complete DMEM cell culture media [DMEM (Life Technologies, product #11960-051) media supplemented with 10% FBS (Hyclone, catalog #SH30071.03), antimycotic/antibiotic (Life Technologies, product #15240-062), and Glutamax (Life Technologies, product #35050-061)] at 1,000 (HEK293) or 5,000 (HepG2) cells per well. Cells were allowed to attach and grow overnight, after which compounds are added at various concentrations. Cell viability was assessed 96 hrs after compound addition with CellTiter-Glo reagent (Promega, catalog #G7570) according to manufacturer's protocol and measurement on a Pherastar luminescence plate reader (BMG Labtech).
(§4) The IC50s for the viability of both the Hek293 empty vector and WFS1 over-expressing cells are summarized in Table 47: A<0.06 μM; 0.06 μM≤B<0.6 μM; 0.6 μM≤C<3.0 μM; D≥3.0 μM.
In general terms: Cellular ATP, detected with luciferase, serves as a proxy for viable cell number.

The test system of assay [4] is Hek293 empty vector. The experiment in a line: In vitro cell viability (CellTiter-Glo), Hek293 empty vector. The following applies: Homo sapiens, HEK293; read-out: Hek293 empty vector viability. The procedure: as §1, §2, §3, §4

Structures are written as SMILES.

With `Cc1nn(C)cc1Cn1cc(CNc2nc(C)c3c(n2)N(C)[C@@H](C)C(=O)N3)cn1` [Compound 139, (7S)-2-(((1-((1,3-dimethyl-1H-pyrazol-4-yl)methyl)-1H-pyrazol-4-yl)methyl)amino)-4,7,8-trimethyl-7,8-dihydropteridin-6(5H)-one], the IC50 is at least 10 µM in assay [1], at least 3 µM in assay [3] and at least 3 µM in assay [4]. Moreover, the concentration giving a half-maximal response (EC50) in assay [2] was 2 to 10 µM.

As to `Cc1nc(NCc2cnn([C@H]3CCN(C4CCC(F)(F)CC4)C3)c2)nc2c1NC(=O)[C@H](C)N2C` [Compound 142, (7S)-2-(((1-((S)-1-(4,4-difluorocyclohexyl)pyrrolidin-3-yl)-1H-pyrazol-4-yl)methyl)amino)-4,7,8-trimethyl-7,8-dihydropteridin-6(5H)-one], the IC50 was 0.6 to 2 µM in assay [1], 0.06 to 0.6 µM in assay [3] and at least 3 µM in assay [4]. Also, the 50% effective concentration (EC50) in assay [2] was in the range of 0.6 to 2 µM.

Turning to `Cc1nc(NCc2ccc(-n3cc(C(F)(F)F)cn3)nc2)nc2c1NC(=O)[C@H](C)N2C` [Compound 143, (S)-4,7,8-trimethyl-2-(((6-(4-(trifluoromethyl)-1H-pyrazol-1-yl)pyridin-3-yl)methyl)amino)-7,8-dihydropteridin-6(5H)-one], the IC50 in assay [1] was 2 to 10 µM; in assay [3] it was 0.06 to 0.6 µM; in assay [4], at least 3 µM. The EC50 in assay [2] fell in the range of 2 to 10 µM.

As to `Cc1nc(NCc2cnn(Cc3ccc(C(F)(F)F)cc3)c2)nc2c1NC(=O)[C@H](C)N2C` [Compound 149, (7S)-4,7,8-trimethyl-2-(((1-(4-(trifluoromethyl)benzyl)-1H-pyrazol-4-yl)methyl)amino)-7,8-dihydropteridin-6(5H)-one], the values for the IC50 in assay [1], in assay [3] and in assay [4] were below 0.6 µM, below 0.06 µM and at least 3 µM, respectively. Besides, the concentration giving a half-maximal response (EC50) in assay [2] is below 0.6 µM.

Regarding `Cc1nc(NCc2cnn([C@@H]3C[C@@H]3c3ccc(F)cc3)c2)nc2c1NC(=O)[C@H](C)N2C` [Compound 154, (7S)-2-(((1-((1R,2R)-2-(4-fluorophenyl)cyclopropyl)-1H-pyrazol-4-yl)methyl)amino)-4,7,8-trimethyl-7,8-dihydropteridin-6(5H)-one], the figures for the IC50 in assay [1], in assay [3] and in assay [4] were below 0.6 µM, below 0.06 µM and at least 3 µM, respectively. The EC50 in assay [2] is below 0.6 µM.

As for `Cc1nc(NCc2cnn(Cc3cc(C(F)(F)F)nn3C)c2)nc2c1NC(=O)[C@H](C)N2C` [Compound 160, (7S)-4,7,8-trimethyl-2-(((1-((1-methyl-3-(trifluoromethyl)-1H-pyrazol-5-yl)methyl)-1H-pyrazol-4-yl)methyl)amino)-7,8-dihydropteridin-6(5H)-one], the figures for the IC50 in assay [1], in assay [3] and in assay [4] were below 0.6 µM, below 0.06 µM and at least 3 µM, respectively. For the same molecule, in assay [2], the EC50 was in the range of 0.6 to 2 µM.

For the molecule `Cc1ncc(Cn2cc(CNc3nc(C)c4c(n3)N(C)[C@@H](C)C(=O)N4)cn2)cn1` [Compound 163, (7S)-4,7,8-trimethyl-2-(((1-((2-methylpyrimidin-5-yl)methyl)-1H-pyrazol-4-yl)methyl)amino)-7,8-dihydropteridin-6(5H)-one], the IC50 is at least 10 µM in assay [1], at least 3 µM in assay [3] and at least 3 µM in assay [4]. In addition, the EC50 in assay [2] lay in the range of 2 to 10 µM.

Regarding `Cc1cnc(C(F)(F)F)nc1-n1cc(CNc2ncc3c(n2)N(C)[C@@H](C)C(=O)N3)cn1` [Compound 164, (7S)-7,8-dimethyl-2-(((1-(5-methyl-2-(trifluoromethyl)pyrimidin-4-yl)-1H-pyrazol-4-yl)methyl)amino)-7,8-dihydropteridin-6(5H)-one], the IC50 in assay [1] is 2 to 10 µM; in assay [3], 0.6 to 3 µM; in assay [4], at least 3 µM. Moreover, the half-maximal effective concentration (EC50) in assay [2] was 2 to 10 µM.

Take `Cc1nc(NCc2cnn([C@@H]3CCN(c4ccc(F)cc4)C3)c2)nc2c1NC(=O)[C@H](C)N2C` [Compound 170, (7S)-2-(((1-((R)-1-(4-fluorophenyl)pyrrolidin-3-yl)-1H-pyrazol-4-yl)methyl)amino)-4,7,8-trimethyl-7,8-dihydropteridin-6(5H)-one]: the IC50 in assay [1] was below 0.6 µM; in assay [3], below 0.06 µM; in assay [4] it was at least 3 µM. Moreover, the EC50 in assay [2] is below 0.6 µM.

Regarding `Cc1ccc(Cn2cc(CNc3nc(C)c4c(n3)N(C)[C@@H](C)C(=O)N4)cn2)cn1` [Compound 173, (7S)-4,7,8-trimethyl-2-(((1-((6-methylpyridin-3-yl)methyl)-1H-pyrazol-4-yl)methyl)amino)-7,8-dihydropteridin-6(5H)-one], the values for the IC50 in assay [1], in assay [3] and in assay [4] were 2 to 10 µM, 0.06 to 0.6 µM and at least 3 µM, respectively. Moreover, in assay [2], the concentration giving a half-maximal response (EC50) was in the range of 2 to 10 µM.

Regarding `Cc1nc(NCc2cnn([C@@H](C)c3ccc(C(F)(F)F)nc3)c2)nc2c1NC(=O)[C@H](C)N2C` [Compound 174, (7S)-4,7,8-Trimethyl-2-(((1-((S)-1-(6-(trifluoromethyl)pyridin-3-yl)ethyl)-1H-pyrazol-4-yl)methyl)amino)-7,8-dihydropteridin-6(5H)-one], the IC50 was 0.6 to 2 µM in assay [1], below 0.06 µM in assay [3] and at least 3 µM in assay [4]. Also, in assay [2], the EC50 is 0.6 to 2 µM.

For `CC[C@H]1C(=O)Nc2c(C)nc(NCc3cnn(Cc4ccc(C(F)(F)F)nc4)c3)nc2N1C` [Compound 186, (7S)-7-ethyl-4,8-dimethyl-2-(((1-((6-(trifluoromethyl)pyridin-3-yl)methyl)-1H-pyrazol-4-yl)methyl)amino)-7,8-dihydropteridin-6(5H)-one], the IC50 was below 0.6 µM in assay [1], below 0.06 µM in assay [3] and at least 3 µM in assay [4]. Further, the EC50 in assay [2] fell in the range of 0.6 to 2 µM.

Consider `Cc1nc(C(F)(F)F)ccc1Cn1cc(CNc2nc(C)c3c(n2)N(C)[C@@H](C)C(=O)N3)cn1` [Compound 188, (S)-4,7,8-trimethyl-2-(((1-((2-methyl-6-(trifluoromethyl)pyridin-3-yl)methyl)-1H-pyrazol-4-yl)methyl)amino)-7,8-dihydropteridin-6(5H)-one], for which the results for the IC50 in assay [1], in assay [3] and in assay [4] were below 0.6 µM, below 0.06 µM and at least 3 µM, respectively. Also, the half-maximal effective concentration (EC50) in assay [2] lay within 0.6 to 2 µM.

For `Cc1nc(NCc2cnn(Cc3ccnc(C(F)(F)F)c3)c2)nc2c1NC(=O)[C@H](C)N2C` [Compound 207, (7S)-4,7,8-trimethyl-2-(((1-((2-(trifluoromethyl)pyridin-4-yl)methyl)-1H-pyrazol-4-yl)methyl)amino)-7,8-dihydropteridin-6(5H)-one], the IC50 is below 0.6 µM in assay [1], below 0.06 µM in assay [3] and at least 3 µM in assay [4]. For the same molecule, in assay [2], the concentration giving a half-maximal response (EC50) lay in the range of 0.6 to 2 µM.

As to `Cc1nc(NCc2cnn(Cc3ccc(F)cc3)c2)nc2c1NC(=O)C1(CC1)N2` [Compound 222, 2′-(((1-(4-fluorobenzyl)-1H-pyrazol-4-yl)methyl)amino)-4′-methyl-5′,8′-dihydro-6′H-spiro[cyclopropane-1,7′-pteridin]-6′-one], the IC50 in assay [1] is at least 10 µM; in assay [3], at least 3 µM; in assay [4], at least 3 µM. Moreover, in assay [2], the EC50 is 2 to 10 µM.
